# Patent publication US20240293364A1, “BIOMARKERS FOR CANCER THERAPY USING MDM2 ANTAGONISTS” (OTSUKA PHARMACEUTICAL CO., LTD., priority 2021, published 2024)
# Key:
# Type in all cases: cell-based
# [1] = tested on: ATM mutant cell lines LNCap and HepG2; test: Apoptosis assays (Annexin V-FITC/PI flow cytometry); settings: LNCap prostate and HepG2 liver (FIG. 2D)
# Method: After 72-hour incubation of the cells with compound, cells were trypsinised, washed with PBS and immediately used for flow cytometry analysis.
# The samples were stained with eBioscience™ Annexin V-FITC Apoptosis Detection Kit (#BMS500FI-100, Thermo Fisher Scientific, Waltham, MA, USA) according to manufacturer's recommendations. Briefly, the samples were washed in PBS and resuspended in 200 μl of 1× binding buffer containing 5 μl of Annexin V-FITC for 10 min at room temperature. Following the incubation, samples were washed with 1× binding buffer and resuspended in 200 μl 1× binding buffer and 10 μl of the 20 μg/ml PI.
# The stained samples were then immediately analysed by flow cytometry on Guava easyCyte HT cytometer (Merck-Millipore). The cell populations were separated into three groups: live cells showing only a low level of fluorescence (Annexin V-/PI-), apoptotic cells showing green fluorescence (Annexin V+/PI−) and dead cells showing both red and green fluorescence (Annexin V+/PI+). Data analyses were performed using Microsoft excel and results plotted on Prism version 7 (GraphPad Software, California, USA).
# [2] = tested on: patient-derived organoids (PDOs); test: Proliferation assays on patient-derived organoids (PDOs), BRCA1/BRCA2/ATM status
# Method: (§1) Organoids were retrieved from the CrownBIO organoid bank and expanded before getting enough quantity according to standard operation procedure. One day before organoids seeding, the needed number of organoids were passaged 1:1 using 50% Matrigel and 50% corresponding culture medium. On Day 0 organoids were seeded and compound added: organoids were collected by adding 20 μl 100× Dispase solution to each well from a 6-well plate, and incubating at 37C for 30 min. After incubation, organoids were collected from all wells and pipetted through a pre-wet 100 μm filter into a 50 ml plastic tube, then filtered the flow through over a pre-wet 20 μm filter, inverted the 20 μm filter and recovered the organoids in a new 50 ml tube, Collect organoids were then resuspended in the corresponding culture media, and counted. Organoids cell suspensions were added to 384-well plate by Multidrop dispenser. 2-4 hours after organoids seeding, compounds were added by Tecan D300e, then plates were placed back into incubator for 5 days' incubation. On day 5, proliferation was assayed by CellTiter-Glo assay. […] The plate was then read (for luminescence) in an Envision plate reader.
# [3] = tested on: MSI-H colorectal cancer PDOs; test: Proliferation assays on patient-derived organoids (PDOs), MSI-H colorectal cancer; settings: 6 MSI-H colorectal cancer PDOs (FIG. 4C)
# Method: as §1
# CAL-51 = test: CellTiter-Glo cell viability, combination matrix with PARP inhibitors (HSA synergy), CAL-51; settings: CAL-51, TP53 WT, BRCA2 Mutant, 72 h
# Method: The cell line will be treated with test articles alone, matrix combinations with test articles and culture medium as vehicle control.
# • 1. Harvest cells during the logarithmic growth period and count cell number. • 2. Adjust cell concentrations to 4.0×10^4cells/mL with respective culture medium. • 3. Add 100 μL cell suspensions to three 96-well plates (plates A, B and C) with the final cell density of 4×10^3 cells/well. 4a. Next Day: For the Plates of TO Reading: • 1) Equilibrate the plate A and its content at RT for approximately 30 min. • 2) Add 50 μL CellTiter-Glo reagent to each well. • 3) Mix content for 5 min on an orbital shaker to induce cell lysis. • 4) Allow the plate to incubate at RT for 20 min to stabilize luminescent signal. • 5) Record luminescence (TO) using EnVision Multi Label Reader. 4b. For the Plates of Test Reading: • 1) Prepare 500× solution of test articles (Top working concentration: 10 μM/100 μM of test articles in media with 3-fold serial dilutions to achieve 9 dose levels. • 2) Prepare 10× reference control solutions (Top working concentration: 100 μM in media with 3.16-fold serial dilutions. • 3) Dispense 500× drug solutions in each well (triplicate for each drug concentration) of the plate B using digital dispenser. […] Record luminescence (T3) using EnVision Multi Label Reader. […]
structure (smiles),measurement,setting,value
"CC[C@@](O)(c1cc(F)c2c(c1)C(=O)N([C@H](c1ccc(Cl)cc1)[C@H](C)C(=O)O)[C@@]2(OC)c1ccc(Cl)cc1)C1CCOCC1 [Example 124, (2S,3S)-3-(4-chlorophenyl)-3-[(1R)-1-(4-chlorophenyl)-7-fluoro-5-[(1S)-1-hydroxy-1-(oxan-4-yl)propyl]-1-methoxy-3-oxo-2,3-dihydro-1H-isoindol-2-yl]-2-methylpropanoic acid]",sensitivity as measured by increased apoptosis,[1],showed sensitivity
same,sensitivity as measured by reduction in cell proliferation,"[2]; 4 PDOs with alterations in either ATM, BRCA1 and/or BRCA2 (FIG. 2F-G)",showed sensitivity
same,sensitivity as measured by reduction in cell proliferation,"[2]; 4 additional PDOs with no alterations in ATM, BRCA1 and/or BRCA2",resistant
same,sensitivity as measured by reduction in cell proliferation,[3],showed sensitivity
same,HSA_Average <−5 Antagonism >+5 Synergy,CAL-51; Compound 1 in combination with Olaparib,8.0
same,HSA_Average <−5 Antagonism >+5 Synergy,CAL-51; Compound 1 in combination with Talazoparib,15.7
